# From ChEMBL document CHEMBL3880402, “Inhibitors of E1 activating enzymes” (2006)
# Biological target: T1, NEDD8-activating enzyme E1 catalytic subunit (Homo sapiens, UniProt Q8TBC4)
# T1 sequence (Q8TBC4 whole entry): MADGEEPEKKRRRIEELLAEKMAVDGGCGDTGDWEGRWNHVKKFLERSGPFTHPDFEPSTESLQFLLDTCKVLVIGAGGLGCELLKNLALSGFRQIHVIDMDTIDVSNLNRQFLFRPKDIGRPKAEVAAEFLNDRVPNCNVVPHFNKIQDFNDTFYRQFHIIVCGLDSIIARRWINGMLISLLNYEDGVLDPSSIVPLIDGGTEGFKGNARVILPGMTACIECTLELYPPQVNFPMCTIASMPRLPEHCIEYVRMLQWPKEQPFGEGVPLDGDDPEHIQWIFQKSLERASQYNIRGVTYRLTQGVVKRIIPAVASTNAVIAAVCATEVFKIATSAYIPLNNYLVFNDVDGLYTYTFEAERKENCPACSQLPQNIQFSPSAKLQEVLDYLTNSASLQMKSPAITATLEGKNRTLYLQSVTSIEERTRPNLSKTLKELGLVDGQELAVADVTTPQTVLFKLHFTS
# Experiment: Inhibition of recombinant human untagged NAEalpha/N-terminal His-tagged NAEbeta expressed in Bac-to-Bac expression system using FLAG-tagged NEDD8 as substrate after 90 mins in presence of GST-tagged Ubc12 by HTRF assay
row,Structure (SMILES),IC50
1,NS(=O)(=O)OC[C@H]1C[C@@H](n2cnc3c(C#Cc4ccccc4)ncnc32)C[C@@H]1O,100 to 1000 nM
2,NS(=O)(=O)OC[C@H]1O[C@@H](n2cnc3c(NCC4CCCCC4)ncnc32)[C@H](O)[C@@H]1O,100 to 1000 nM
3,NS(=O)(=O)NC[C@H]1O[C@@H](n2cnc3c(NC[C@H](O)c4cccc(O)c4)ncnc32)[C@H](O)[C@@H]1O,100 to 1000 nM
4,NS(=O)(=O)OC[C@H]1O[C@@H](n2cnc3c(NCCN4CCN(Cc5ccccc5)CC4)ncnc32)[C@H](O)[C@@H]1O,100 to 1000 nM
5,COc1ncnc2c1ccn2[C@H]1C[C@H](O)[C@@H](COS(N)(=O)=O)O1,≤ 1000 nM
6,NS(=O)(=O)OC[C@H]1O[C@@H](n2cnc3c(C#Cc4ccccc4F)ncnc32)[C@H](O)[C@@H]1O,100 to 1000 nM
7,NS(=O)(=O)OC[C@H]1O[C@@H](n2cnc3c(NCC4CCNCC4)ncnc32)[C@H](O)[C@@H]1O,100 to 1000 nM
8,NS(=O)(=O)NC[C@H]1O[C@@H](n2cnc3c(NCc4ccc5c(c4)OCO5)ncnc32)[C@H](O)[C@@H]1O,100 to 1000 nM
9,Cc1ncnc2c1ncn2[C@@H]1O[C@H](COS(N)(=O)=O)[C@@H](O)[C@H]1O,100 to 1000 nM
10,COc1ccccc1C#Cc1ncnc2c1ncn2[C@@H]1O[C@H](COS(N)(=O)=O)[C@@H](O)[C@H]1O,100 to 1000 nM
11,NS(=O)(=O)OC[C@H]1O[C@@H](n2cnc3c(C#Cc4cc(F)cc(F)c4)ncnc32)[C@H](O)[C@@H]1O,100 to 1000 nM
12,NS(=O)(=O)OC[C@H]1O[C@@H](n2cnc3c(C#Cc4ccc(F)cc4F)ncnc32)[C@H](O)[C@@H]1O,100 to 1000 nM
13,NS(=O)(=O)OC[C@H]1O[C@@H](n2cnc3c(-c4cccc(C(F)(F)F)c4)ncnc32)[C@H](O)[C@@H]1O,100 to 1000 nM
14,CC(C)Cc1ncnc2c1ncn2[C@@H]1O[C@H](COS(N)(=O)=O)[C@@H](O)[C@H]1O,≤ 1000 nM
15,NS(=O)(=O)OC[C@H]1O[C@@H](n2cnc3c(CNC(=O)c4cccnc4)ncnc32)[C@H](O)[C@@H]1O,100 to 1000 nM
16,NS(=O)(=O)OC[C@H]1O[C@@H](n2cnc3c(N[C@H]4CCc5ccccc54)nncc32)[C@H](O)[C@@H]1O,100 to 1000 nM
17,NS(=O)(=O)OC[C@H]1O[C@@H](n2cnc3c(C#Cc4cccc(F)c4)ncnc32)[C@H](O)[C@@H]1O,100 to 1000 nM
18,CCCc1ncnc2c1ncn2[C@@H]1C[C@H](COS(N)(=O)=O)[C@@H](O)[C@H]1O,100 to 1000 nM
19,NS(=O)(=O)OC[C@H]1C[C@@H](n2cnc3c(CCc4ccccc4)ncnc32)[C@H](O)[C@@H]1O,100 to 1000 nM
20,NS(=O)(=O)OC[C@H]1O[C@@H](n2cnc3c(C#Cc4cccc(Br)c4)ncnc32)[C@H](O)[C@@H]1O,100 to 1000 nM

row,Structure (SMILES),IC50
1,NS(=O)(=O)OC[C@H]1O[C@@H](n2cnc3c(/C=C/c4ccccc4)ncnc32)[C@H](O)[C@@H]1O,100 to 1000 nM
2,COc1ccc(C#Cc2ncnc3c2ncn3[C@@H]2O[C@H](COS(N)(=O)=O)[C@@H](O)[C@H]2O)cc1,100 to 1000 nM
3,NS(=O)(=O)OC[C@H]1O[C@@H](n2ccc3c(NCc4ccccc4)nccc32)C[C@@H]1O,≤ 1000 nM
4,CC(C)Cc1ncnc2c1ncn2[C@@H]1C[C@H](COS(N)(=O)=O)[C@@H](O)[C@H]1O,≤ 1000 nM
5,NS(=O)(=O)OC[C@H]1O[C@@H](n2cnc3c(C#Cc4ccccc4C(F)(F)F)ncnc32)[C@H](O)[C@@H]1O,100 to 1000 nM
6,Cc1cnc(CNc2ncnc3c2ncn3[C@@H]2O[C@H](COS(N)(=O)=O)[C@@H](O)[C@H]2O)cn1,100 to 1000 nM
7,NS(=O)(=O)OC[C@H]1O[C@@H](n2ccc3cncnc32)C[C@@H]1O,100 to 1000 nM
8,NS(=O)(=O)OC[C@H]1O[C@@H](n2cnc3c(-c4ccco4)ncnc32)[C@H](O)[C@@H]1O,100 to 1000 nM
9,NS(=O)(=O)OC[C@H]1C[C@@H](n2cnc3c(C#Cc4ccccc4)ncnc32)[C@H](O)[C@@H]1O,100 to 1000 nM
10,NS(=O)(=O)OC[C@H]1O[C@@H](n2cnc3c(CNC(=O)c4cc(F)cc(F)c4)ncnc32)[C@H](O)[C@@H]1O,100 to 1000 nM
11,NS(=O)(=O)OC[C@H]1O[C@@H](n2cnc3c(CCc4ccccc4)ncnc32)[C@@H](F)[C@@H]1O (relative stereo),100 to 1000 nM
12,NS(=O)(=O)OC[C@H]1O[C@@H](n2cnc3c(NCc4ccc5c(c4)OCO5)ncnc32)[C@H](O)[C@@H]1O,100 to 1000 nM
13,NS(=O)(=O)NC[C@H]1O[C@@H](n2cnc3c(NCC(c4ccccc4)c4ccccc4)ncnc32)[C@H](O)[C@@H]1O,100 to 1000 nM
14,NS(=O)(=O)OC[C@H]1O[C@@H](n2cnc3c(-c4cccc(-n5cccn5)c4)ncnc32)[C@H](O)[C@@H]1O,100 to 1000 nM
15,Cc1noc(C)c1-c1ncnc2c1ncn2[C@@H]1O[C@H](COS(N)(=O)=O)[C@@H](O)[C@H]1O,100 to 1000 nM
16,NS(=O)(=O)OC[C@H]1O[C@@H](n2cnc3c(C#Cc4cccc(Cl)c4)ncnc32)[C@H](O)[C@@H]1O,100 to 1000 nM
17,NS(=O)(=O)OC[C@H]1O[C@@H](n2cnc3c(C#Cc4ccc(Cl)cc4)ncnc32)[C@H](O)[C@@H]1O,100 to 1000 nM
18,NS(=O)(=O)OC[C@H]1O[C@@H](n2cnc3c(C#Cc4ccccc4)ncnc32)C[C@@H]1O,100 to 1000 nM
19,NS(=O)(=O)OC[C@H]1O[C@@H](n2cnc3c(C4CC4)ncnc32)[C@H](O)[C@@H]1O,100 to 1000 nM
20,NS(=O)(=O)OC[C@H]1O[C@@H](n2cnc3c(NCCN4CCCC4)ncnc32)[C@H](O)[C@@H]1O,100 to 1000 nM

# Now from value to molecule:
row,IC50,Structure (SMILES)
1,100 to 1000 nM,NS(=O)(=O)NC[C@H]1O[C@@H](n2cnc3c(N[C@@H]4CCc5ccccc54)ncnc32)[C@H](O)[C@@H]1O
2,100 to 1000 nM,COc1ccccc1C(=O)Nc1ncnc2c1ncn2[C@@H]1O[C@H](COS(N)(=O)=O)[C@@H](O)[C@H]1O
3,100 to 1000 nM,NS(=O)(=O)OC[C@H]1O[C@@H](n2cnc3c(NCc4ccc(Cl)cc4)ncnc32)[C@H](O)[C@@H]1O
4,100 to 1000 nM,NS(=O)(=O)NC[C@H]1O[C@@H](n2cnc3c(NCc4cccs4)ncnc32)[C@H](O)[C@@H]1O
5,100 to 1000 nM,NS(=O)(=O)CC[C@H]1O[C@@H](n2cnc3c(NC(c4ccccc4)c4ccccc4)ncnc32)[C@H](O)[C@@H]1O
6,100 to 1000 nM,NS(=O)(=O)OC[C@H]1O[C@@H](n2cnc3c(N[C@H]4CCc5ccccc54)ncnc32)[C@@H](F)[C@@H]1O
7,100 to 1000 nM,Nc1nc(N[C@H]2CCc3ccccc32)c2ncn([C@@H]3O[C@H](COS(N)(=O)=O)[C@@H](O)[C@H]3O)c2n1
8,100 to 1000 nM,NS(=O)(=O)OC[C@@H]1C[C@@H](O)[C@H](n2cnc3c(N[C@H]4CCc5ccccc54)ncnc32)O1
9,100 to 1000 nM,C[C@@]1(O)[C@H](O)[C@@H](COS(N)(=O)=O)O[C@H]1n1cnc2c(N[C@H]3CCc4ccccc43)ncnc21
10,100 to 1000 nM,NS(=O)(=O)OC[C@H]1C[C@@H](n2cnc3c(N[C@H]4CCc5ccccc54)ncnc32)C[C@@H]1O
11,100 to 1000 nM,NS(=O)(=O)OC[C@H]1O[C@@H](n2ccc3c(N[C@H]4CCc5ccccc54)ncnc32)[C@H](O)[C@@H]1O
12,100 to 1000 nM,NS(=O)(=O)OC[C@H]1O[C@@H](n2cnc3c(N[C@@H]4c5ccccc5C[C@@H]4O)ncnc32)[C@H](O)[C@@H]1O
13,100 to 1000 nM,COc1ccccc1CNc1ncnc2c1ncn2[C@@H]1O[C@H](COS(N)(=O)=O)[C@@H](O)[C@H]1O
14,100 to 1000 nM,NS(=O)(=O)OC[C@H]1O[C@@H](n2cnc3c(NC(=O)c4ccc(Br)cc4)ncnc32)[C@H](O)[C@@H]1O
15,100 to 1000 nM,NS(=O)(=O)OC[C@H]1O[C@@H](n2cnc3c(NCCc4ccccc4)ncnc32)[C@H](O)[C@@H]1O
16,100 to 1000 nM,NS(=O)(=O)NC[C@H]1O[C@@H](n2cnc3c(NCc4ccccc4)ncnc32)[C@H](O)[C@@H]1O

row,IC50,Structure (SMILES)
1,100 to 1000 nM,NS(=O)(=O)OC[C@H]1O[C@@H](n2cnc3c(CC4Cc5ccccc5C4)ncnc32)[C@H](O)[C@@H]1O
2,100 to 1000 nM,NS(=O)(=O)CC[C@H]1O[C@@H](n2cnc3c(N[C@@H]4c5ccccc5C[C@@H]4O)ncnc32)[C@H](O)[C@@H]1O
3,100 to 1000 nM,NS(=O)(=O)OC[C@H]1O[C@@H](n2cnc3c(NCc4ccc(F)cc4)ncnc32)[C@H](O)[C@@H]1O
4,100 to 1000 nM,NS(=O)(=O)NC[C@H]1O[C@@H](n2cnc3c(NCc4cccc5ccccc45)ncnc32)[C@H](O)[C@@H]1O
5,100 to 1000 nM,NS(=O)(=O)OC[C@H]1O[C@@H](n2cnc3c(C#Cc4ccccc4Br)ncnc32)[C@H](O)[C@@H]1O
6,100 to 1000 nM,NS(=O)(=O)OC[C@H]1O[C@@H](n2cnc3c(NCc4cccs4)ncnc32)[C@H](O)[C@@H]1O
7,100 to 1000 nM,NS(=O)(=O)CC[C@H]1O[C@@H](n2cnc3c(NCc4ccc(Cl)cc4)ncnc32)[C@H](O)[C@@H]1O
8,100 to 1000 nM,CC(=O)NCc1ccccc1CNc1ncnc2c1ncn2[C@@H]1O[C@H](COS(N)(=O)=O)[C@@H](O)[C@H]1O
9,100 to 1000 nM,NS(=O)(=O)OC[C@H]1O[C@@H](n2cnc3c(NCc4cccc5ccccc45)ncnc32)[C@H](O)[C@@H]1O
10,100 to 1000 nM,NS(=O)(=O)OC[C@H]1O[C@@H](n2cnc3c(N[C@@H](CO)c4ccccc4)ncnc32)[C@H](O)[C@@H]1O
11,100 to 1000 nM,NS(=O)(=O)OC[C@H]1O[C@@H](n2cnc3c(N[C@H]4CCc5ccccc54)ncnc32)[C@H](O)[C@@H]1O
12,100 to 1000 nM,NS(=O)(=O)CC[C@H]1O[C@@H](n2cnc3c(N[C@H]4CCc5ccccc54)ncnc32)[C@H](O)[C@@H]1O
13,100 to 1000 nM,CO[C@@H]1[C@H](O)[C@@H](COS(N)(=O)=O)O[C@H]1n1cnc2c(N[C@H]3CCc4ccccc43)ncnc21
14,100 to 1000 nM,NS(=O)(=O)NC[C@H]1C[C@@H](n2cnc3c(N[C@H]4CCc5ccccc54)ncnc32)[C@H](O)[C@@H]1O
15,100 to 1000 nM,CC1(C)CC(Nc2ncnc3c2ncn3[C@@H]2O[C@H](CCS(N)(=O)=O)[C@@H](O)[C@H]2O)c2ccccc21 (stereo partly specified)
